In patent US20210122757A1, “SPIROCYCLIC COMPOUNDS AS MODULATORS OF INDOLEAMINE 2,3-DIOXYGENASE” (PHENEX DISCOVERY VERWALTUNGS-GMBH, priority 2018, published 2021):

Molecular target: T1, Indoleamine 2,3-dioxygenase (Homo sapiens, UniProt P14902)
T1 construct: endogenous in cells; host or cells: SKOV-3 (ATCC HTB-77), stimulated with 50 ng/ml interferon gamma
Experiment: SKOV-3 Cellular Indoleamine 2,3-dioxygenase Assay
Conditions: SKOV-3 cells, 50 ng/ml Interferon gamma, 100 μM L-Tryptophan, 24 hours, N-Formylkynurenin fluorescence detection; read-out: cell based activity (IC50)
Description: SKOV-3 Cellular Indoleamine 2,3-dioxygenase Assay
SKOV-3 cells were obtained from the American Type Culture Collection (ATCC® HTB-77™) and maintained in McCoy's medium (Pan Biotech) supplemented with 10% fetal bovine serum and 1% Penicillin/Streptomycin. Cells were kept at 37° C. in a humidified incubator with 5% CO2. For assay preparation, cells were seeded at a density of 2*10^5/ml into black clear bottom 96 well plates in 100 μl medium/well supplemented with 50 ng/ml Interferon gamma (eBioscience, Thermo Fisher Scientific). After cells fully adhered to the plate, dilution series of compounds were added in medium containing additional L-Tryptophan to a final L-Tryptophan concentration of 100 μM. The cells were incubated for 24 hours. Detection of produced N-Formylkynurenin was performed by addition of 3-Methylpiperidine to a final concentration of 200 mM. The plates were sealed and heated to 65° C. for 20 minutes in a water bath. After cooling the fluorescence of each well was recorded with a Victor™X4 (PerkinElmer) plate reader at an emission wavelength of 535 nm and excitation at 405 nm (Tomek et al.; Anal Bioanal Chem (2013) 405:2515-2524, Tomek et al.; Biochim Biophys Acta. 2015 September; 1850(9):1772-80).

T1 sequence (P14902 whole entry): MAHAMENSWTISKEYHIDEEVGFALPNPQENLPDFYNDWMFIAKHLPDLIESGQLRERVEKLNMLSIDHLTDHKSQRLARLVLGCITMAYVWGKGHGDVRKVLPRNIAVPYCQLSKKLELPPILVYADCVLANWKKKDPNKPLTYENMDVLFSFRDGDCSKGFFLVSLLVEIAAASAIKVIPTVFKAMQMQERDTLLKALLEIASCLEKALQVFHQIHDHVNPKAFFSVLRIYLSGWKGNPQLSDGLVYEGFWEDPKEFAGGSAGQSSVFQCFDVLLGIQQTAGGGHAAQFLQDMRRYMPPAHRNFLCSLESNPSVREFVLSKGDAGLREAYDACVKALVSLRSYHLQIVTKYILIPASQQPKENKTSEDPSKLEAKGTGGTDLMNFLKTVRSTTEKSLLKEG

Row | IC50 | SMILES
1 | ≥ 50 nM | CC(C(=O)NC1Cc2ccc(F)cc21)C1CCC2(CC1)COc1cc(C(F)(F)F)ccc12 (single isomer, unassigned) [Example 12b]
2 | < 50 nM | Cc1ccc(NC(=O)C(C)C2CCC3(CC2)COc2cc(C(F)(F)F)ccc23)cc1 (single isomer, unassigned) [Example 8c, N-(p-Tolyl)-2-(6-(trifluoromethyl)-2H-spiro[benzofuran-3,1′-cyclohexan]-4′-yl)propanamide]
3 | ≥ 50 nM | CC(C(=O)Nc1ccc(Cl)cc1)C1CCC2(CC1)COc1ncc(C(F)(F)F)cc12 (single isomer, unassigned) [Example 4c, N-(4-chlorophenyl)-2-(5′-(trifluoromethyl)-2′H-spiro[cyclohexane-1,3′-furo[2,3-b]pyridin]-4-yl)propanamide]
4 | < 50 nM | CC(C(=O)Nc1ccc(Cl)cc1)[C@H]1CC[C@@]2(CCc3ccccc32)CC1 (single isomer, unassigned) [Example 2b, N-(4-chlorophenyl)-2-(2′,3′-dihydrospiro[cyclohexane-1,1′-inden]-4-yl)propanamide]
5 | < 50 nM | CC(C(=O)Nc1ccc(Cl)cc1)C1CCC2(CC1)COc1nc(C(F)(F)F)ccc12 (single isomer, unassigned) [Example 5b, N-(4-chlorophenyl)-2-(6′-(trifluoromethyl)-2′H-spiro[cyclohexane-1,3′-furo[2,3-b]pyridin]-4-yl)propanamide]
6 | < 50 nM | CCC(C(=O)Nc1ccc(Cl)cn1)C1CCC2(CC1)COc1cc(C(F)(F)F)ccc12 (single isomer, unassigned) [Example 10c, N-(5-chloropyridin-2-yl)-2-(6-(trifluoromethyl)-2H-spiro[benzofuran-3,1′-cyclohexan]-4′-yl)butanamide]
7 | < 50 nM | CC(C(=O)Nc1ccc(Cl)cc1)C1CCC2(CC1)COc1nc(C(F)(F)F)ccc12 (single isomer, unassigned) [Example 5c, N-(4-chlorophenyl)-2-(6′-(trifluoromethyl)-2′H-spiro[cyclohexane-1,3′-furo[2,3-b]pyridin]-4-yl)propanamide]
8 | ≥ 50 nM | O=C(C[C@H]1CC[C@@]2(CC1)COc1cc(C(F)(F)F)ccc12)Nc1ccc(Cl)cc1F (single isomer, unassigned) [Example 14b, N-(4-chloro-2-fluorophenyl)-2-(6-(trifluoromethyl)-2H-spiro[benzofuran-3,1′-cyclohexan]-4′-yl)acetamide]
9 | < 50 nM | O=C(C[C@H]1CC[C@@]2(CC1)COc1cc(C(F)(F)F)ccc12)Nc1ccc(Cl)cc1F (single isomer, unassigned) [Example 14a, N-(4-chloro-2-fluorophenyl)-2-(6-(trifluoromethyl)-2H-spiro[benzofuran-3,1′-cyclohexan]-4′-yl)acetamide]
10 | < 50 nM | C[C@H](C(=O)Nc1ccc(Cl)cc1)[C@H]1CC[C@]2(CC1)COc1cc(C(F)(F)F)ccc12 [Example 3d, (S)—N-(4-Chlorophenyl)-2-((3R,4′s)-6-(trifluoromethyl)-2H-spiro[benzofuran-3,1′-cyclohexan]-4′-yl)propanamide]
11 | ≥ 50 nM | CC(C(=O)Nc1ccc(Cl)cc1)C1CCC2(CC1)c1ccc(C(F)(F)F)cc1C(=O)N2C (single isomer, unassigned) [Example 6b, N-(4-Chlorophenyl)-2-(2′-methyl-3′-oxo-5′-(trifluoromethyl)spiro[cyclohexane-1,1′-isoindolin]-4-yl)propanamide]
12 | < 50 nM | CC(C(=O)Nc1ccc(Cl)cc1)C1CCC2(CC1)c1ccc(C(F)(F)F)cc1C(=O)N2C (single isomer, unassigned) [Example 6c, N-(4-Chlorophenyl)-2-(2′-methyl-3′-oxo-5′-(trifluoromethyl)spiro[cyclohexane-1,1′-isoindolin]-4-yl)propanamide]
13 | < 50 nM | Cc1ccc(NC(=O)C(C)C2CCC3(CC2)COc2cc(C(F)(F)F)ccc23)cc1 (single isomer, unassigned) [Example 8b, N-(p-Tolyl)-2-(6-(trifluoromethyl)-2H-spiro[benzofuran-3,1′-cyclohexan]-4′-yl)propanamide]
14 | < 50 nM | C[C@H](C(=O)Nc1ccc(Cl)cc1)[C@H]1CC[C@]2(CC1)COc1cc(C(F)F)ccc12 [Example 13, (S)—N-(4-chlorophenyl)-2-((3R,4′s)-6-(difluoromethyl)-2H-spiro[benzofuran-3,1′-cyclohexan]-4′-yl)propanamide]
15 | ≥ 50 nM | CC1CCC(NC(=O)C(C)C2CCC3(CC2)COc2cc(C(F)(F)F)ccc23)CC1 (single isomer, unassigned) [Example 9d, N-((1r,4r)-4-Methylcyclohexyl)-2-(6-(trifluoromethyl)-2H-spiro[benzofuran-3,1′-cyclohexan]-4′-yl)propanamide]
16 | < 50 nM | CC1CCC(NC(=O)C(C)C2CCC3(CC2)COc2cc(C(F)(F)F)ccc23)CC1 (single isomer, unassigned) [Example 9e, N-((1r,4r)-4-Methylcyclohexyl)-2-(6-(trifluoromethyl)-2H-spiro[benzofuran-3,1′-cyclohexan]-4′-yl)propanamide]
17 | < 50 nM | O=C(C[C@H]1CC[C@@]2(CCc3ccccc32)CC1)Nc1ccc(Cl)cc1 (single isomer, unassigned) [Example 1c, N-(4-chlorophenyl)-2-(2′,3′-dihydrospiro[cyclohexane-1,1′-inden]-4-yl)acetamide]
18 | ≥ 50 nM | CC(C(=O)Nc1ccc(Cl)cc1F)C1CCC2(CC1)COc1cc(C(F)(F)F)ccc12 (single isomer, unassigned) [Example 7e, N-(4-Chloro-2-fluorophenyl)-2-(6-(trifluoromethyl)-2H-spiro[benzofuran-3,1′-cyclohexan]-4′-yl)propanamide]
19 | ≥ 50 nM | CC(C(=O)Nc1ccc(Cl)cc1)C1CCC2(CC1)COc1ncc(C(F)(F)F)cc12 (single isomer, unassigned) [Example 4d, N-(4-chlorophenyl)-2-(5′-(trifluoromethyl)-2′H-spiro[cyclohexane-1,3′-furo[2,3-b]pyridin]-4-yl)propanamide]
20 | ≥ 50 nM | O=C(C[C@H]1CC[C@@]2(CCc3ccccc32)CC1)Nc1ccc(Cl)cc1 (single isomer, unassigned) [Example 1b, N-(4-chlorophenyl)-2-(2′,3′-dihydrospiro[cyclohexane-1,1′-inden]-4-yl)acetamide]
21 | ≥ 50 nM | CCC(C(=O)Nc1ccc(Cl)cn1)C1CCC2(CC1)COc1cc(C(F)(F)F)ccc12 (single isomer, unassigned) [Example 10e, N-(5-chloropyridin-2-yl)-2-(6-(trifluoromethyl)-2H-spiro[benzofuran-3,1′-cyclohexan]-4′-yl)butanamide]
22 | < 50 nM | C[C@@H](C(=O)Nc1ccc(Cl)cc1)[C@H]1CC[C@@]2(CC1)COc1cc(C(F)(F)F)ccc12 [Example 3c, (R)—N-(4-Chlorophenyl)-2-((3R,4′r)-6-(trifluoromethyl)-2H-spiro[benzofuran-3,1′-cyclohexan]-4′-yl)propanamide]
